In patent US12077503B2, “Substituted cyclic amides and their use as herbicides” (FMC CORPORATION, priority 2015, dated 2024):

Tests used:
Type in all cases: in vivo
Kochia (Kochia scoparia) [1] = assay: Test A preemergence; settings: Bassia scoparia, pre-emergence, 240 h, Preemergence
Summary of the method: (§1)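 Preemergence soil spray on seeded pots or post-emergence spray on 1–2 leaf plants, in loam–sand blend. Greenhouse ~10 d. Visual rating 0–100 against untreated plants.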

[2] = test system: barnyardgrass (Echinochloa crus-galli); assay: Test A preemergence; settings: Echinochloa crus-galli, pre-emergence, 240 h, Preemergence
Summary of the method: as §1

[3] = test system: giant foxtail (Setaria faberii); assay: Test A preemergence; settings: Setaria faberi, pre-emergence, 240 h, Preemergence
Summary of the method: as §1

[4] = test system: pigweed (Amaranthus retroflexus); assay: Test A preemergence; settings: Amaranthus retroflexus, pre-emergence, 240 h, Preemergence
[5] = test system: ragweed (common ragweed, Ambrosia elatior); assay: Test A preemergence; settings: Ambrosia artemisiifolia, pre-emergence, 240 h, Preemergence
Summary of the method: as §1

[6] = test system: ryegrass, Italian (Italian ryegrass, Lolium multiflorum); assay: Test A preemergence; settings: Lolium multiflorum, pre-emergence, 240 h, Preemergence
Summary of the method: as §1

[7] = test system: Galium (catchweed bedstraw, Galium aparine); assay: Test A postemergence; settings: Galium, post-emergence, 240 h, Postemergence
Summary of the method: as §1

Kochia (Kochia scoparia) [8] = assay: Test A postemergence; settings: Bassia scoparia, post-emergence, 240 h, Postemergence
Summary of the method: as §1

[9] = test system: barnyardgrass (Echinochloa crus-galli); assay: Test A postemergence; settings: Echinochloa crus-galli, post-emergence, 240 h, Postemergence
Summary of the method: as §1

[10] = test system: blackgrass (Alopecurus myosuroides); assay: Test A postemergence; settings: Alopecurus myosuroides, post-emergence, 240 h, Postemergence
Summary of the method: as §1

corn (Zea mays) = assay: Test A postemergence; settings: Zea mays, post-emergence, 240 h, Postemergence
Summary of the method: as §1

[11] = test system: giant foxtail (Setaria faberii); assay: Test A postemergence; settings: Setaria faberi, post-emergence, 240 h, Postemergence
Summary of the method: as §1

[12] = test system: pigweed (Amaranthus retroflexus); assay: Test A postemergence; settings: Amaranthus retroflexus, post-emergence, 240 h, Postemergence
Summary of the method: as §1

[13] = test system: ragweed (common ragweed, Ambrosia elatior); assay: Test A postemergence; settings: Ambrosia artemisiifolia, post-emergence, 240 h, Postemergence
Summary of the method: as §1

[14] = test system: ryegrass, Italian (Italian ryegrass, Lolium multiflorum); assay: Test A postemergence; settings: Lolium multiflorum, post-emergence, 240 h, Postemergence
Summary of the method: as §1

[15] = test system: wheat (Triticum aestivum); assay: Test A postemergence; settings: Triticum aestivum, post-emergence, 240 h, Postemergence
Summary of the method: as §1

[16] = test system: barnyardgrass (Echinochloa crus-galli); assay: Test B flooded paddy test; settings: Echinochloa crus-galli, 360 h, Flood, 250 g ai/ha; visually evaluated after 13 to 15 d; read-out: Plant response rating, Barnyardgrass (0 to 100 scale where 0 is no effect and 100 is complete control)
Summary of the method: (§2)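 Visual ratings (0 none to 100 complete control) are relative to untreated plants, taken 13–15 d after treatment in a greenhouse. Test material went straight into floodwater standing 3 cm above the soil, kept constant, on plants at the 2-leaf stage.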

[17] = test system: ducksalad (Heteranthera limosa); assay: Test B flooded paddy test; settings: Heteranthera limosa, 360 h, Flood, 250 g ai/ha; visually evaluated after 13 to 15 d; read-out: Plant response rating, Ducksalad (0 to 100 scale where 0 is no effect and 100 is complete control)
Summary of the method: as §2

rice (Oryra sativa) = assay: Test B flooded paddy test; settings: Oryza sativa, 360 h, Flood, 250 g ai/ha; visually evaluated after 13 to 15 d; read-out: Plant response rating, Rice (0 to 100 scale where 0 is no effect and 100 is complete control)
Summary of the method: as §2

[18] = test system: sedge, umbrella (small-flower umbrella sedge, Cyperus difformis); assay: Test B flooded paddy test; settings: Cyperus difformis, 360 h, Flood, 250 g ai/ha; visually evaluated after 13 to 15 d; read-out: Plant response rating, Sedge, Umbrella (0 to 100 scale where 0 is no effect and 100 is complete control)
Summary of the method: as §2

With `CN1C[C@H](c2ccc(C(F)(F)F)cc2)[C@@H](C(=O)Nc2cccnc2F)C1=O` [Compound 1396] the pest or weed control at 31 g/ha (Kochia (Kochia scoparia) [1]; 31 g ai/ha, 0 to 100 scale where 0 is no effect and 100 is complete control, read-out: Kochia plant response rating) was 30%, the pest or weed control at 125 g/ha (Kochia (Kochia scoparia) [1]; 125 g ai/ha, 0 to 100 scale (0 no effect, 100 complete control), read-out: Plant response rating, Kochia) was 70% and the pest or weed control at 31 g/ha ([2]; 31 g ai/ha, 0 to 100 scale where 0 is no effect and 100 is complete control, read-out: Barnyardgrass plant response rating) was 90%. For the same compound, the pest or weed control at 125 g/ha ([2]; 125 g ai/ha, 0 to 100 scale (0 no effect, 100 complete control), read-out: Plant response rating, Barnyardgrass) was 90%, the pest or weed control at 31 g/ha ([3]; 31 g ai/ha, 0 to 100 scale where 0 is no effect and 100 is complete control, read-out: Foxtail, Giant plant response rating) was 90% and the pest or weed control at 125 g/ha ([3]; 125 g ai/ha, 0 to 100 scale (0 no effect, 100 complete control), read-out: Plant response rating, Foxtail, Giant) was 90%. The pest or weed control at 31 g/ha ([4]; 31 g ai/ha, 0 to 100 scale where 0 is no effect and 100 is complete control, read-out: Pigweed plant response rating) was 70%, the pest or weed control at 125 g/ha ([4]; 125 g ai/ha, 0 to 100 scale (0 no effect, 100 complete control), read-out: Plant response rating, Pigweed) was 90% and the pest or weed control at 31 g/ha ([5]; 31 g ai/ha, 0 to 100 scale where 0 is no effect and 100 is complete control, read-out: Ragweed plant response rating) was 30%. It also gave a pest or weed control at 125 g/ha ([5]; 125 g ai/ha, 0 to 100 scale (0 no effect, 100 complete control), read-out: Plant response rating, Ragweed) of 60%, a pest or weed control at 31 g/ha ([6]; 31 g ai/ha, 0 to 100 scale where 0 is no effect and 100 is complete control, read-out: Ryegrass, Italian plant response rating) of 0% and a pest or weed control at 125 g/ha ([6]; 125 g ai/ha, 0 to 100 scale (0 no effect, 100 complete control), read-out: Plant response rating, Ryegrass, Italian) of 40%. It also gave a pest or weed control at 31 g/ha ([7]; 31 g ai/ha, 0 is no effect, 100 is complete control, read-out: Galium plant response rating (0 to 100 scale)) of 60%, a pest or weed control at 125 g/ha ([7]; 125 g ai/ha, visual injury after approx. 10 d, 0 to 100 scale, 0 no effect, 100 complete control, read-out: Plant response rating, Galium) of 70% and a pest or weed control at 31 g/ha (Kochia (Kochia scoparia) [8]; 31 g ai/ha, 0 is no effect, 100 is complete control, read-out: Kochia plant response rating (0 to 100 scale)) of 60%. It also gave a pest or weed control at 125 g/ha (Kochia (Kochia scoparia) [8]; 125 g ai/ha, visual injury after approx. 10 d, 0 to 100 scale, 0 no effect, 100 complete control, read-out: Plant response rating, Kochia) of 70%, a pest or weed control at 31 g/ha ([9]; 31 g ai/ha, 0 is no effect, 100 is complete control, read-out: Barnyardgrass plant response rating (0 to 100 scale)) of 70% and a pest or weed control at 125 g/ha ([9]; 125 g ai/ha, visual injury after approx. 10 d, 0 to 100 scale, 0 no effect, 100 complete control, read-out: Plant response rating, Barnyardgrass) of 80%. It also gave a pest or weed control at 31 g/ha ([10]; 31 g ai/ha, 0 is no effect, 100 is complete control, read-out: Blackgrass plant response rating (0 to 100 scale)) of 0%, a pest or weed control at 125 g/ha ([10]; 125 g ai/ha, visual injury after approx. 10 d, 0 to 100 scale, 0 no effect, 100 complete control, read-out: Plant response rating, Blackgrass) of 50% and a plant injury at 31 g/ha (corn (Zea mays); 31 g ai/ha, 0 is no effect, 100 is complete control, read-out: Corn plant response rating (0 to 100 scale)) of 20%. It also gave a Corn plant response rating (crop injury, 0 = no effect, 100 = complete kill) at 125 g/ha (corn (Zea mays); 125 g ai/ha, visual injury after approx. 10 d, 0 to 100 scale, 0 no effect, 100 complete control) of 60%, a pest or weed control at 31 g/ha ([11]; 31 g ai/ha, 0 is no effect, 100 is complete control, read-out: Foxtail, Giant plant response rating (0 to 100 scale)) of 80% and a pest or weed control at 125 g/ha ([11]; 125 g ai/ha, visual injury after approx. 10 d, 0 to 100 scale, 0 no effect, 100 complete control, read-out: Plant response rating, Foxtail, Giant) of 80%. The pest or weed control at 31 g/ha ([12]; 31 g ai/ha, 0 is no effect, 100 is complete control, read-out: Pigweed plant response rating (0 to 100 scale)) was 30%, the pest or weed control at 125 g/ha ([12]; 125 g ai/ha, visual injury after approx. 10 d, 0 to 100 scale, 0 no effect, 100 complete control, read-out: Plant response rating, Pigweed) was 70% and the pest or weed control at 31 g/ha ([13]; 31 g ai/ha, 0 is no effect, 100 is complete control, read-out: Ragweed plant response rating (0 to 100 scale)) was 0%. It also gave a pest or weed control at 125 g/ha ([13]; 125 g ai/ha, visual injury after approx. 10 d, 0 to 100 scale, 0 no effect, 100 complete control, read-out: Plant response rating, Ragweed) of 50%, a pest or weed control at 31 g/ha ([14]; 31 g ai/ha, 0 is no effect, 100 is complete control, read-out: Ryegrass, Italian plant response rating (0 to 100 scale)) of 20% and a pest or weed control at 125 g/ha ([14]; 125 g ai/ha, visual injury after approx. 10 d, 0 to 100 scale, 0 no effect, 100 complete control, read-out: Plant response rating, Ryegrass, Italian) of 40%. For the same compound, the plant injury at 31 g/ha ([15]; 31 g ai/ha, 0 is no effect, 100 is complete control, read-out: Wheat plant response rating (0 to 100 scale)) was 0%, the plant injury at 125 g/ha ([15]; 125 g ai/ha, visual injury after approx. 10 d, 0 to 100 scale, 0 no effect, 100 complete control, read-out: Plant response rating, Wheat) was 70% and the pest or weed control at 250 g/ha [16] was 80%. It also gave a pest or weed control at 250 g/ha [17] of 100%, a pest or weed control at 250 g/ha (rice (Oryra sativa)) of 25% and a pest or weed control at 250 g/ha [18] of 0%.
